Experimental findings from ChEMBL document CHEMBL2346508, “Bifunctional inhibition of HIV-1 reverse transcriptase: a first step in designing a bifunctional triphosphate” (Bioorg Med Chem Lett, 2013) are described below.

Activity calls are given as the source filed them. The calls are words filed in the database; no cut-off is given here.

The test system of one assay is MT2. Nature of the assay: Cytotoxicity against human MT2 cells after 5 days by MTT assay. The settings on record: MT2, 120 h. The class given is cell-based. (In general: Formazan colour is commonly taken as a measure of viable cells.)
Assay [1] concerns Human immunodeficiency virus 1. Put plainly: Antiviral activity against HIV-1 infected un MT2 cells assessed as virus-induced cytopathicity after 5 days by MTT assay. In kind it is functional, organism-based. Particulars: Human immunodeficiency virus 1, MT2, 120 h.
The target of assay [2] is Human immunodeficiency virus type 1 reverse transcriptase (Human immunodeficiency virus 1) (UniProt Q72547). Put plainly: Inhibition of HIV-1 RT assessed as inhibition of annealing of D23/D36 primer/template at 150 uM by polyacrylamide denaturing gel-based incorporation assay.

Regarding `CC(C)=CCN1Cc2c(OCCOCCOCCOCCOCCOCCOC(=O)CCc3cn([C@H]4C=C[C@@H](CO)O4)c(=O)[nH]c3=O)ccc3[nH]c(=S)n(c23)C[C@@H]1C`, in the assay with MT2, the IC50 (as a rule, the concentration at which inhibition is half-maximal) was over 100 µM. For the same compound, the EC50 (usually the concentration that produces a half-maximal response) in assay [1] amounted to 100 µM.

`CC(C)=CCN1Cc2c(OCCOCCOCCOCCOCCOCCOCCOCCO)ccc([N+](=O)[O-])c2NC[C@@H]1C` yielded an IC50 in the assay with MT2 of over 100 µM. The concentration giving a half-maximal response (EC50) in assay [1] turned out to be 27 µM.

In turn, `Cc1cn([C@H]2C=C[C@@H](CO)O2)c(=O)[nH]c1=O` [STAVUDINE] registered an IC50 in the assay with MT2 of over 100 µM. For the same compound, the EC50 in assay [1] came to 2.2 µM.

Regarding `CC(C)=CCN1Cc2c(OCCOCCOCCOCCOC(=O)CCc3cn([C@H]4C=C[C@@H](CO)O4)c(=O)[nH]c3=O)ccc3[nH]c(=S)n(c23)C[C@@H]1C`, the concentration for half-maximal inhibition (IC50) in the assay on MT2 is over 100 µM. Moreover, the EC50 in assay [1] amounted to 45 µM.

On to `CC(C)=CCN1Cc2c(OCCOCCOCCOCCOCCOCCOCCOCCOC(=O)CCc3cn([C@H]4C=C[C@@H](CO)O4)c(=O)[nH]c3=O)ccc3[nH]c(=S)n(c23)C[C@@H]1C`, for which the half-maximal inhibitory concentration (IC50) in the assay with MT2 was over 100 µM. Further, the EC50 in assay [1] stood at 120 µM.

In the case of `CC(C)=CCN1Cc2c(OCCOCCOCCOCCOCCOCCn3c(=O)ccn([C@H]4C=C[C@@H](CO)O4)c3=O)ccc3[nH]c(=S)n(c23)C[C@@H]1C`, the 50% inhibitory concentration (IC50) in the assay on MT2 came to 38 µM. The EC50 in assay [1] was 20 µM.

For `CC(C)=CCN1Cc2c(OCCOCCOCCOCCOCCOCCn3c(=O)ccn([C@H]4C=C[C@@H](COP(=O)(O)OP(=O)(O)OP(=O)(O)O)O4)c3=O)ccc3[nH]c(=S)n(c23)C[C@@H]1C`, in assay [2], the inhibition entry is “inactive”.
